Assay results published in patent US20160229835A1, “NOVEL PYRIDYLOXYACETYL TETRAHYDROISOQUINOLINE COMPOUNDS USEFUL AS NAMPT INHIBITORS” (ELI LILLY AND COMPANY, priority 2013, published 2016).

Test system: A2780 Cancer Cells
Experiment: LC-MS Analysis of NAD+ and Carbohydrate Metabolites in A2780 Cancer Cells
Format: cell-based
Conditions: for Metabolite Levels (μM) DHAP / Metabolite Levels (μM) FBP / Metabolite Levels (μM) HP / Metabolite Levels (μM) NAD / Metabolite Levels (μM) SP / Metabolite Levels (μM) FP: A2780 cells, 24 hours
Experimental: The purpose of this assay is to measure effects of NAMPT inhibitors on NAD^+ formation in cancer cells. LC-MS analysis of NAD^+ metabolites: nicotinamide mononucleotide (NMN), NAD^+, reduced nicotinamide adenine dinucleotide (NADH), and nicotinamide adenine dinucleotide phosphate (NADP) is performed on an HPLC system coupled to a Thermo Quantum Ultra triple quadrupole mass spectrometer operated in positive heated electrospray mode with selected reaction monitoring detection. For cell extracts, 50 μL of extract and 10 μL of 10 μM internal standard (IS) solution is transferred to a 96-well plate, dried under nitrogen and reconstituted in 50 μL of water. For tissue extracts, 20 μL of extract and 10 μL of IS solution are dried and reconstituted in 50 μL water. The IS solution contains 10 μM nicotinamide-d4 (C/D/N Isotopes), nicotinic acid-d4 (C/D/N Isotopes), nicotinamide mononucleotide-d4 (prepared by custom synthesis) and nicotinamide 1,N^6-ethenoadenine dinucleotide in methanol. The metabolites are separated on a Waters XBRIDGE™ Amide (2.1×50 mm, 3 μm) with an injection volume of 10 μL and a flow rate of 1 mL/minute using 10 mM ammonium acetate in 95% acetonitrile for mobile phase A and 10 mM ammonium acetate in 50% acetonitrile for mobile phase B. The gradient is as follows: 0 minutes, 0% B; 2.5 minutes, 70% B; 2.51 minutes, 100% B; 2.8 minutes, 100% B; 2.81 minutes, 0% B, 3.6 minutes, 0% B.
The purpose of this assay is to measure effects of NAMPT inhibitors on the levels of metabolites such as glucose-6-phosphate/fructose-6-phosphate/fructose-1-phosphate collectively as hexose phosphate (HP), fructose-1,6-bisphosphate (FBP), glyceraldehyde-3-phosphate (G3P), dihydroxyacetone phosphate (DHAP), 3-phosphoglycerate (3PG), 2-phosphoglycerate (2PG), phosphoenoylpyruvate (PEP), gluconate-6-phosphate (GN6P), xylulose-5-phosphate (X5P), ribulose-5-phosphate (Ru5P), ribose-5-phosphate (R5P), sedoheptulose-7-phosphate/sedoheptulose-1-phosphate collectively as sedoheptulose phosphate (SP), erythrose-4-phosphate (E4P), and α-ketoglutarate (α-KG) derived from glycolysis, the TCA cycle, and the pentose-phosphate pathway in tumor cells. Cells (50,000/well) are grown as described above in 100 μL of Dulbecco's Modified Eagle Medium supplemented with 10% FBS (dialyzed) and 25 mM glucose, and treated with a compound in triplicates in the presence or absence of 10 μM nicotinic acid. After 24 hours of treatment, the growth medium is removed and 200 μL of 80% methanol is added to each well. After incubation at room temperature for 15 minutes, the resulting extracts are transferred to 96-deep-well plates and washed twice with 200 μL of 80% methanol/water. Then, the plates are heat sealed and stored at −80° C., or dried and reconstituted in 100 μL of 25 μM ethylenediaminetetraacetic acid and injected into LC-MS for analysis.
The LC-MS analysis for carbohydrate metabolites is performed as follows. Chromatographic separations are performed with an HPLC system, which is coupled to an AB Sciex triple quadrupole LC-MS mass spectrometer. Analytes with phosphates are analyzed as follows. The samples are dried and reconstituted in ACN/water solutions and are separated on a Phenomenex Luna amino HPLC column (2.1×30 mm 3 μm) under the conditions as described by Yuan et al. (Nature Protocols, 2012, […], 872-881.). The mass spectrometer is operated under negative ESI MRM mode.

COCCS(=O)(=O)Nc1ccc2c(c1)CCN(C(=O)COc1cccnc1)C2 [Example 2, 2-Methoxy-N-[2-[2-(3-pyridyloxy)acetyl]-3,4-dihydro-1H-isoquinolin-6-yl]ethanesulfonamide]
Metabolite Levels (μM) DHAP (compound 0.000508 μM): 0.5 µM
Metabolite Levels (μM) FBP (compound 0.000508 μM): 1.4 µM
Metabolite Levels (μM) HP (compound 0.000508 μM): 1.6 µM
Metabolite Levels (μM) NAD (compound 0.000508 μM): 0.527 µM
Metabolite Levels (μM) SP (compound 0.000508 μM): 0.2 µM
Metabolite Levels (μM) DHAP (compound 0.00152 μM): 0.9 µM
Metabolite Levels (μM) FBP (compound 0.00152 μM): 1.8 µM
Metabolite Levels (μM) HP (compound 0.00152 μM): 1.6 µM
Metabolite Levels (μM) NAD (compound 0.00152 μM): 0.457 µM
Metabolite Levels (μM) SP (compound 0.00152 μM): 0.2 µM
Metabolite Levels (μM) DHAP (compound 0.00457 μM): 3.2 µM
Metabolite Levels (μM) FBP (compound 0.00457 μM): 2.2 µM
Metabolite Levels (μM) HP (compound 0.00457 μM): 1.6 µM
Metabolite Levels (μM) NAD (compound 0.00457 μM): 0.255 µM
Metabolite Levels (μM) SP (compound 0.00457 μM): 0.2 µM
Metabolite Levels (μM) DHAP (compound 0.0137 μM): 6.3 µM
Metabolite Levels (μM) FBP (compound 0.0137 μM): 3.2 µM
Metabolite Levels (μM) HP (compound 0.0137 μM): 1.9 µM
Metabolite Levels (μM) NAD (compound 0.0137 μM): 0.087 µM
Metabolite Levels (μM) SP (compound 0.0137 μM): 0.3 µM
Metabolite Levels (μM) DHAP (compound 0.0412 μM): 6.5 µM
Metabolite Levels (μM) FBP (compound 0.0412 μM): 6.4 µM
Metabolite Levels (μM) HP (compound 0.0412 μM): 2.8 µM
Metabolite Levels (μM) NAD (compound 0.0412 μM): 0.039 µM
Metabolite Levels (μM) SP (compound 0.0412 μM): 0.5 µM
Metabolite Levels (μM) DHAP (compound 0.123 μM): 7.1 µM
Metabolite Levels (μM) FBP (compound 0.123 μM): 15.5 µM
Metabolite Levels (μM) HP (compound 0.123 μM): 7.2 µM
Metabolite Levels (μM) NAD (compound 0.123 μM): 0.023 µM
Metabolite Levels (μM) SP (compound 0.123 μM): 1.3 µM
Metabolite Levels (μM) DHAP (compound 0.37 μM): 7.1 µM
Metabolite Levels (μM) FBP (compound 0.37 μM): 22.8 µM
Metabolite Levels (μM) HP (compound 0.37 μM): 11.0 µM
Metabolite Levels (μM) NAD (compound 0.37 μM): 0.022 µM
Metabolite Levels (μM) SP (compound 0.37 μM): 2.2 µM
Metabolite Levels (μM) DHAP (compound 1.111 μM): 7.3 µM
Metabolite Levels (μM) FBP (compound 1.111 μM): 24.1 µM
Metabolite Levels (μM) HP (compound 1.111 μM): 11.8 µM
Metabolite Levels (μM) NAD (compound 1.111 μM): 0.017 µM
Metabolite Levels (μM) SP (compound 1.111 μM): 2.5 µM
Metabolite Levels (μM) DHAP (compound 3.333 μM): 7.6 µM
Metabolite Levels (μM) FBP (compound 3.333 μM): 23.4 µM
Metabolite Levels (μM) HP (compound 3.333 μM): 12.8 µM
Metabolite Levels (μM) NAD (compound 3.333 μM): 0.02 µM
Metabolite Levels (μM) SP (compound 3.333 μM): 2.5 µM
Metabolite Levels (μM) DHAP (compound 10 μM): 7.7 µM
Metabolite Levels (μM) FBP (compound 10 μM): 21.5 µM
Metabolite Levels (μM) HP (compound 10 μM): 10.9 µM
Metabolite Levels (μM) NAD (compound 10 μM): 0.02 µM
Metabolite Levels (μM) SP (compound 10 μM): 2.1 µM

CC(C)(O)CS(=O)(=O)Nc1ccc2c(c1)CCN(C(=O)COc1cccnc1)C2 [Example 1, 2-Hydroxy-2-methyl-N-[2-[2-(3-pyridyloxy)acetyl]-3,4-dihydro-1H-isoquinolin-6-yl]propane-1-sulfonamide]
NAD formation (A2780 cancer cells, in words): dose-dependent inhibition
glycolytic intermediates (HP, FBP, and DHAP/G3P) before and at the G3P dehydrogenase step (A2780 cancer cells, in words): dose-dependent increase
intermediates (PEP, and PG) after the G3P dehydrogenase step (A2780 cancer cells, in words): dose-dependent decrease
key intermediates of the pentose phosphate pathway including SP (A2780 cancer cells, in words): increased
Metabolite Levels (μM) DHAP (compound 0.000508 μM): 0.6 µM
Metabolite Levels (μM) FBP (compound 0.000508 μM): 2.5 µM
Metabolite Levels (μM) FP (compound 0.000508 μM): 1.9 µM
Metabolite Levels (μM) NAD (compound 0.000508 μM): 0.331 µM
Metabolite Levels (μM) SP (compound 0.000508 μM): 0.3 µM
Metabolite Levels (μM) DHAP (compound 0.00152 μM): 0.6 µM
Metabolite Levels (μM) FBP (compound 0.00152 μM): 3.0 µM
Metabolite Levels (μM) FP (compound 0.00152 μM): 2.1 µM
Metabolite Levels (μM) NAD (compound 0.00152 μM): 0.244 µM
Metabolite Levels (μM) SP (compound 0.00152 μM): 0.3 µM
Metabolite Levels (μM) DHAP (compound 0.00457 μM): 0.6 µM
Metabolite Levels (μM) FBP (compound 0.00457 μM): 4.1 µM
Metabolite Levels (μM) FP (compound 0.00457 μM): 2.4 µM
Metabolite Levels (μM) NAD (compound 0.00457 μM): 0.089 µM
Metabolite Levels (μM) SP (compound 0.00457 μM): 0.4 µM
Metabolite Levels (μM) DHAP (compound 0.0137 μM): 1.0 µM
Metabolite Levels (μM) FBP (compound 0.0137 μM): 7.2 µM
Metabolite Levels (μM) FP (compound 0.0137 μM): 3.0 µM
Metabolite Levels (μM) NAD (compound 0.0137 μM): 0.027 µM
Metabolite Levels (μM) SP (compound 0.0137 μM): 0.5 µM
Metabolite Levels (μM) DHAP (compound 0.0412 μM): 2.0 µM
Metabolite Levels (μM) FBP (compound 0.0412 μM): 19.3 µM
Metabolite Levels (μM) FP (compound 0.0412 μM): 7.6 µM
Metabolite Levels (μM) NAD (compound 0.0412 μM): 0.014 µM
Metabolite Levels (μM) SP (compound 0.0412 μM): 1.3 µM
Metabolite Levels (μM) DHAP (compound 0.123 μM): 3.8 µM
Metabolite Levels (μM) FBP (compound 0.123 μM): 34.3 µM
Metabolite Levels (μM) FP (compound 0.123 μM): 15.1 µM
Metabolite Levels (μM) NAD (compound 0.123 μM): 0.008 µM
Metabolite Levels (μM) SP (compound 0.123 μM): 2.6 µM
Metabolite Levels (μM) DHAP (compound 0.37 μM): 5.0 µM
Metabolite Levels (μM) FBP (compound 0.37 μM): 40.9 µM
Metabolite Levels (μM) FP (compound 0.37 μM): 17.2 µM
Metabolite Levels (μM) NAD (compound 0.37 μM): 0.010 µM
Metabolite Levels (μM) SP (compound 0.37 μM): 3.2 µM
Metabolite Levels (μM) DHAP (compound 1.111 μM): 5.4 µM
Metabolite Levels (μM) FBP (compound 1.111 μM): 38.6 µM
Metabolite Levels (μM) FP (compound 1.111 μM): 18.0 µM
Metabolite Levels (μM) NAD (compound 1.111 μM): 0.008 µM
Metabolite Levels (μM) SP (compound 1.111 μM): 3.3 µM
Metabolite Levels (μM) DHAP (compound 3.333 μM): 5.2 µM
Metabolite Levels (μM) FBP (compound 3.333 μM): 43.0 µM
Metabolite Levels (μM) FP (compound 3.333 μM): 18.8 µM
Metabolite Levels (μM) NAD (compound 3.333 μM): 0.007 µM
Metabolite Levels (μM) SP (compound 3.333 μM): 3.4 µM
Metabolite Levels (μM) DHAP (compound 10 μM): 5.5 µM
Metabolite Levels (μM) FBP (compound 10 μM): 39.7 µM
Metabolite Levels (μM) FP (compound 10 μM): 17.1 µM
Metabolite Levels (μM) NAD (compound 10 μM): 0.008 µM
Metabolite Levels (μM) SP (compound 10 μM): 2.8 µM
